We go through 1 compound from patent US12673106B2, “Modulators of nuclear receptor subfamily 4 group A member 1 (NR4A1) and uses thereof” (University of Florida Research Foundation, Incorporated, priority 2020, dated 2026).

For data set [1], the system named is MCF7-Tam cells. Put plainly: MTS viability assay, MCF7-Tam cells. Type of data set: cell-based. The note with it: relative to celastrol or NR-V04-NT. The text has this:
NR4A1-Ps selectively kill breast cancer cells. Since NR-V04 is very efficient in NR4A1 degradation, a negative control, NR-V04-NT, was synthesized.
For orientation: Tetrazolium dyes change colour on reduction, which living cells bring about.

The subject of data set [2] is Py8119 cells. Description: Py8119 breast cancer model in C57/BL6 mice. Type of data set: in vivo, mouse. How it is done:
FIG. 7A-FIG. 7D. Py8119 cells were injected into #4 mammary fatpad of 8-week female C57/BL6 mice, following with vehicle or NR-V04 treatment i.p. at 8 mg/kg weekly, starting at day 15 after tumor cell injection. Body weight (FIG. 7A), tumor growth (data not shown), and immune cell profiling by flow cytometry from spleen, tumor, and blood were shown (FIG. 7B-7D). CD45+CD3+CD8+ T cells (FIG. 7B), CD45+CD3+CD4+T (FIG. 7C), and ratios of CD4+Foxp3+Tregs to total T cells (T), to total CD4 T cells (CD4), to total CD4conv (non Treg CD4 T cells), or to CD8 T cells (FIG. 7D) were shown. * P<0.05; ** P<0.01.
(§1) FIG. 13A-FIG. 13C. Influence of NR-V04 treatment on TI-Tregs from (FIG. 13A) B16F10 melanoma, 1.8 mg/kg twice weekly for 3 weeks; (FIG. 13B) RENCA renal cancer model, 20 mg/kg once a week for 3 weeks; (FIG. 13C-13D) Py8119 breast cancer model, 8 mg/kg once a week for 3 weeks; with FIG. 13C showing the ratios between Treg/Tconv and FIG. 13D showing Treg/CD8+ T cell ratios.
Syngeneic models for antitumor activities. Syngeneic tumor models include breast cancer models: 1) E0771 as luminal breast cancer (C57BL/6 background) (36-38), 2) Py8119 (C57BL/6) (37, 39, 40) and 3) 4T1 (Balb/C) (41, 42) as triple negative breast cancer, and 4) MT2 as HER2-positive breast cancer (FVB/N) (43, 44), all of which develop metastasis upon orthotopic tumor injections; 5) MC-38 colon cancer model; 6) Renca renal carcinoma model; 7) B16 melanoma models. MC-38 is known to be responsive to ICIs and Renca is known to respond of Treg suppression in their tumor growth. B16 is only partially responsive to ICI treatment when anti-CTLA-4 and anti-PD-1 are combined. Careful titration of the minimal cell numbers provides consistent tumor growth and/or metastasis. For testing the efficacy of NR-V04 or other leads, tumor-bearing mice will be treated with either non-targeting NR-V04-NT or NR-V04, or other leads, starting 14 days after tumor cell injection when 3-5 mm in diameter tumor growth is typically seen in all models. The dose and frequency will be used based on the data from SA1.2. Based on work on BCL-XL PROTAC (22), weekly injection of the leads should be sufficient to maintain effective doses in various tissues.

Data set [3] has as its system RENCA cells. Description: RENCA renal cancer model in Balb/C mice. Type of data set: in vivo, mouse. How it is done:
RENCA cells (10,000 per injection) were injected into s.c. of 8-week Balb/C mice, following with vehicle or NR-V04 treatment i.p. at 8 mg/kg weekly, starting at day 15 after tumor cell injection. Tumor volume was recorded.
as §1
Some of the above tumor models will be included, initially using immune responsive tumors including RENCA and MC38 model. […] Tumor volumes will be determined twice weekly by a caliper and calculated as length×width^2×0.5. Animal will be terminated once the largest tumors reach 2 cm in diameter per IACUC protocol (size is justified to determine lung metastasis). • The parameters include: • Primary tumors—Tumors will be cut into pieces and used for: a) immunohistochemical (IHC) staining (embedding in OCT compound and freezing). […]

The test system of data set [4] is B16F10 melanoma. Description: B16F10 melanoma model in C57BL/6J mice. Type of data set: in vivo, mouse. How it is done:
FIG. 10A-10C. […] Tumor growth were monitored via palpation. N=7 mice/group. FIG. 10A and FIG. 10B are the same experiment, but FIG. 10B includes only control vehicle and NR-V04 treated groups in FIG. 10B.
as §1

Data set [5] is described as follows: Body weight and T cell development in normal mice. The class given is in vivo, mouse. The note with it: up to 3 weeks. The text has this: Thymus (FIG. 12A) and spleen (FIG. 12B) were collected for T cell quantitation by flow cytometry.
A short description of data set [6]: Pharmacokinetics in mouse, plasma by LC/MS/MS. The class given is in vivo. On the procedure: Plasma concentrations of NR-V04 were determined by LC/MS/MS (Instrument: AB Sciex 6500 (#15)) using service from BioDuro Inc, at different time points after mice receiving iv injection of 2 mg/kg or ip injection of 20 mg/kg. PK values for iv (2 mg/kg, FIG. 17A) or ip (20 mg/kg, FIG. 17B) are shown and summarized (FIG. 17C).
PK was determined for NR-V04 for iv. injection of 2 mg/kg or ip injection of 20 mg/kg (FIG. 17).

In data set [7] the target is NR4A1 (Homo sapiens, UniProt P22736). Description: Degradation of endogenous NR4A1 in T47D breast cancer cells. Type of data set: cell-based. Details: degrade endogenous NR4A1 in T47D breast cancer cells; endogenous in cells; host or cells: T47D breast cancer cells. The note with it: 1 μM.
Chain of NR4A1 (P22736 whole entry, species assumed): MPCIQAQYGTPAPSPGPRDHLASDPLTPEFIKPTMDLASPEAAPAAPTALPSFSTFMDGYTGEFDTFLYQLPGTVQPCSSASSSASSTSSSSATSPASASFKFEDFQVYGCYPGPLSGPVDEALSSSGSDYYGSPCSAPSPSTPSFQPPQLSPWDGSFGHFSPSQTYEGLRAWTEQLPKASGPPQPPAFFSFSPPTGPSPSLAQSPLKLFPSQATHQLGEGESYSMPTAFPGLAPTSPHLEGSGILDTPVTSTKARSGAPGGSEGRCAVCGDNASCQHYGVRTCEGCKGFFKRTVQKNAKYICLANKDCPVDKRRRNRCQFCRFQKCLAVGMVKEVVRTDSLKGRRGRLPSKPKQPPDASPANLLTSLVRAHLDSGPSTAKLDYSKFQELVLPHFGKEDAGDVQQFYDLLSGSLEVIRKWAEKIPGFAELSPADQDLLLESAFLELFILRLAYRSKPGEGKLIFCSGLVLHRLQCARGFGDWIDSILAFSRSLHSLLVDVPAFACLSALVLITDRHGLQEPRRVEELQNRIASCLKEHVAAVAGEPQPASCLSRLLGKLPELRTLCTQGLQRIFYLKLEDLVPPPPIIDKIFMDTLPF

With `CC1=C(O)C(=O)C=C2C1=CC=C1[C@@]2(C)CC[C@@]2(C)[C@@H]3C[C@](C)(C(=O)NCCOCCOCCOCCOCC(=O)N[C@H](C(=O)N4C[C@H](O)C[C@H]4C(=O)N[C@@H](C)c4ccc(-c5scnc5C)cc4)C(C)(C)C)CC[C@]3(C)CC[C@]12C` [NR-V04], the “cell killing (% viability)” value in data set [1] was “more robust killing relative to celastrol or NR-V04-NT”. In addition, the “overall CD4+ and CD8+ T cells” value in data set [2] (Py8119, 8 mg/kg i.p. weekly) is “without influencing overall CD4+ and CD8+ T cells”. Further, the “tumor-infiltrating Tregs versus effector T cell ratio” value in data set [2] (Py8119, 8 mg/kg i.p. weekly) is listed as “On-target decrease”. Also, the tumor growth entry in data set [2] (Py8119, 8 mg/kg i.p. weekly from day 15) is recorded as “Tumor growth difference was not observed”; in data set [4] (B16F10 in C57BL/6J male mice, 1.8 mg/kg NR-V04 or 0.75 mg/kg celastrol twice weekly for 3 weeks), “significantly reduces tumor growth”. For the same compound, the body weight result in data set [2] (Py8119, 8 mg/kg i.p. weekly, day 25 or 30) was “no difference in body weight”; in data set [5], “did not influence the body weight”. The tumor volume result in data set [3] (8 mg/kg i.p. weekly from day 15) is listed as “significant reduction”. Also, the TI-Tregs result in data set [3] (20 mg/kg once a week for 3 weeks) was “decreased TI-Tregs”; in data set [4] (B16F10, 1.8 mg/kg twice weekly for 3 weeks), “decreased TI-Tregs”. Moreover, the “development of T cells in thymus and spleen” value in data set [5] is on record as “did not change the normal development of T cells”. The average half-life is 8.58 h in data set [6] (ip injection 20 mg/kg) and 5.36 h in data set [6] (iv injection 2 mg/kg). Besides, the NR4A1 degradation entry in data set [7] is recorded as “best efficiency in inducing NR4A1 degradation”.
